The record followed here is ChEMBL document CHEMBL1151112, “A rapid and sensitive bioassay involving cultured rat glioma cells to screen for substances capable of elevating intracellular cyclic AMP concentration” (J Nat Prod, 1988).

pEC50: −log10 of the molar value. Activity calls are given as the source filed them. The calls are words filed in the database; no cut-off is given here.

Data set [1] can be described thus: Induction of morphological transformation of rat ASK cells into astrocytes after 1 hr by light microscopy. The format is functional. The conditions noted are these: read-out: ED50 (the source's name).
A short description of data set [2]: Cytotoxicity against rat ASK cells at 150 uM. The format is cell-based.
A short description of data set [3]: Induction of morphological transformation of rat ASK cells into astrocytes at 6.2 uM after 1 hr by light microscopy in presence of fetal calf serum. Format: functional.
Data set [4] in a line: Induction of morphological transformation of rat ASK cells into astrocytes at 150 uM after 1 hr by light microscopy in presence of fetal calf serum. The format is functional.
A short description of data set [5]: Induction of morphological transformation of rat ASK cells into astrocytes at 6.2 uM after 1 hr by light microscopy in absence of fetal calf serum. The format is functional.
Data set [6] in a line: Induction of morphological transformation of rat ASK cells into astrocytes at 100 uM after 1 hr by light microscopy in absence of fetal calf serum. Format: functional.
A short description of data set [7]: Induction of morphological transformation of rat ASK cells into astrocytes at 25 uM after 1 hr by light microscopy in presence of fetal calf serum. The format is functional.
A short description of data set [8]: Induction of morphological transformation of rat ASK cells into astrocytes at 12.5 uM after 1 hr by light microscopy in presence of colchicine. Format: functional.
The nature of data set [9]: Induction of morphological transformation of rat ASK cells into astrocytes at 6.2 uM after 1 hr by light microscopy in presence of colchicine. Format: functional.
Data set [10] is described as follows: Induction of morphological transformation of rat ASK cells into astrocytes at 50 uM after 1 hr by light microscopy in absence of fetal calf serum. Format: functional.
Data set [11] can be described thus: Induction of morphological transformation of rat ASK cells into astrocytes at 100 uM after 1 hr by light microscopy in presence of colchicine. The format is functional.
Data set [12] in a line: Induction of morphological transformation of rat ASK cells into astrocytes at 25 uM after 1 hr by light microscopy in presence of colchicine. Format: functional.
A short description of data set [13]: Induction of morphological transformation of rat ASK cells into astrocytes at 12.5 uM after 1 hr by light microscopy in presence of fetal calf serum. Format: functional.
A short description of data set [14]: Induction of morphological transformation of rat ASK cells into astrocytes at 100 uM after 1 hr by light microscopy in presence of fetal calf serum. The format is functional.
The nature of data set [15]: Induction of morphological transformation of rat ASK cells into astrocytes at 50 uM after 1 hr by light microscopy in presence of fetal calf serum. Format: functional.
Data set [16] is described as follows: Induction of morphological transformation of rat ASK cells into astrocytes at 12.5 uM after 1 hr by light microscopy in absence of fetal calf serum. Format: functional.
Data set [17] in a line: Induction of morphological transformation of rat ASK cells into astrocytes at 25 uM after 1 hr by light microscopy in absence of fetal calf serum. The format is functional.
The nature of data set [18]: Induction of cAMP production in rat ASK cells assessed per 10^6 cells at 50 uM after 1 hr by radioimmunoassay. Format: functional.
A short description of data set [19]: Induction of morphological transformation of rat ASK cells into astrocytes at 50 uM after 1 hr by light microscopy in presence of colchicine. Format: functional.
Another data set relates to ASK. Description: Induction of morphological transformation of rat ASK cells into astrocytes at 100 ug/ml after 1 hr by light microscopy. The format is functional, cell-based.
The nature of data set [20]: Induction of morphological transformation of rat ASK cells into astrocytes at 2.5 uM after 1 hr by light microscopy. Format: functional.
The nature of data set [21]: Induction of morphological transformation of rat ASK cells into astrocytes at 0.5 uM after 1 hr by light microscopy. The format is functional.
The nature of data set [22]: Induction of morphological transformation of rat ASK cells into astrocytes at 0.02 uM after 1 hr by light microscopy. The format is functional.
Data set [23] can be described thus: Induction of morphological transformation of rat ASK cells into astrocytes at 0.10 uM after 1 hr by light microscopy. Format: functional.
A short description of data set [24]: Induction of morphological transformation of rat ASK cells into astrocytes at 0.004 uM after 1 hr by light microscopy. The format is functional.

`CC(/C=C/C1C(C)CCCC1(C)C)=C\C=C\C(C)=C\C(=O)O` (configuration not stated): in data set [1], the pEC50 was above 5.00. For `C=C[C@@]1(C)CC(=O)[C@]2(O)[C@@]3(C)[C@@H](O)CCC(C)(C)[C@@H]3[C@H](O)[C@H](O)[C@@]2(C)O1`, in [1], the pEC50 is 5.41.

`CC(=O)OC/C=C(C)/C=C/C=C(C)/C=C/C1=C(C)CCCC1(C)C` [GILRETINOL ACETATE]: the pEC50 in data set [1] was 5.00.

Turning to `CC1=C(/C=C/C(C)=C/C=C/C(C)=C/C(=O)O)C(C)(C)CCC1` [TRETINOIN], the Activity entry in data set [2] is “Toxic”; in data set [3], 0%; in [4], 65%; in [5] it was 50%; in data set [6], 100%; in data set [7], 20%. In addition, the Activity turned out to be 0% in [8]; 0% in data set [9]; 95% in data set [10]; 50% in data set [11]; 15% in data set [12]; 10% in [13]. For the same compound, the Activity in data set [14] was 40%; in data set [15] it was 30%; in data set [16], 70%; in data set [17], 80%; in data set [18] it was 20 pmol; in data set [19], 30%. The pEC50 in data set [1] is 5.00. On to `CC(C)=CCC[C@](C)(O[C@@H]1O[C@H](CO[C@@H]2OC[C@H](O)[C@H](O)[C@H]2O)[C@@H](O)[C@H](O)[C@H]1O)[C@H]1CC[C@]2(C)[C@@H]1[C@H](O)C[C@@H]1[C@@]3(C)CC[C@H](O[C@@H]4O[C@H](CO)[C@@H](O)[C@H](O)[C@H]4O[C@@H]4O[C@H](CO)[C@@H](O)[C@H](O)[C@H]4O)C(C)(C)[C@@H]3CC[C@]12C`, for which the outcome in the data set with ASK was inactive. Turning to `C=C[C@@]1(C)CC(=O)[C@@H]2[C@@]3(C)CCCC(C)(C)[C@@H]3[C@H](O)[C@H](OC(C)=O)[C@@]2(C)O1`, the pEC50 in data set [1] is below 4.00. For `CCNC(=O)/C=C(C)/C=C/C=C(C)/C=C/c1c(C)cc(OC)c(C)c1C` [MOTRETINIDE], the pEC50 in data set [1] was below 4.60. For the compound `CC(C)=CCC[C@](C)(O[C@@H]1O[C@H](CO)[C@@H](O)[C@H](O)[C@H]1O)[C@H]1CC[C@]2(C)[C@@H]1[C@H](O)C[C@@H]1[C@@]3(C)CC[C@H](O)C(C)(C)[C@@H]3[C@@H](O[C@@H]3O[C@H](CO)[C@@H](O)[C@H](O)[C@H]3O)C[C@]12C`, the outcome in the data set on ASK was inactive. On to `CC(=O)C1=C(/C=C/C(C)=C/C=C/C(C)=C/C(=O)O)C(C)(C)CC1`, for which, in [1], the pEC50 is below 4.60. Take `COC(=O)/C=C(C)/C=C/C=C(C)/C=C/C1=C(C)CCCC1(C)C` [RETINOIC ACID METHYL ESTER]: the pEC50 in data set [1] was below 4.60. As for `CC(C)=CCC[C@](C)(O[C@@H]1O[C@H](CO[C@@H]2O[C@H](CO)[C@@H](O)[C@H](O)[C@H]2O)[C@@H](O)[C@H](O)[C@H]1O)[C@H]1CC[C@]2(C)[C@@H]1[C@H](O)C[C@@H]1[C@@]3(C)CC[C@H](O[C@@H]4O[C@H](CO)[C@@H](O)[C@H](O)[C@H]4O[C@@H]4O[C@H](CO)[C@@H](O)[C@H](O)[C@H]4O)C(C)(C)[C@@H]3CC[C@]12C`, the result in the data set on ASK was inactive. With `CC1=C(/C=C/C(C)C/C=C/C(C)=C/C(=O)O)C(C)(C)CCC1` (configuration not stated), the pEC50 in [1] is 5.00. As for `CC1=C(/C=C/C(C)=C/C=C/C(C)=C/C=C/C(=O)O)C(C)(C)CCC1`, the pEC50 in data set [1] was below 4.60. Regarding `CC(C)=CCC[C@](C)(O)[C@H]1CC[C@]2(C)[C@@H]1[C@H](O)C[C@@H]1[C@@]3(C)CC[C@H](O)C(C)(C)[C@@H]3[C@@H](O[C@@H]3O[C@H](CO)[C@@H](O)[C@H](O)[C@H]3O[C@@H]3O[C@@H](C)[C@H](O)[C@@H](O)[C@H]3O)C[C@]12C`, the result in the data set on ASK was inactive. Regarding `CC1=C(/C=C/C(C)=C/C=C/C(C)=C/CO)C(C)(C)CCC1` [RETINOL], the pEC50 in [1] was below 4.60.

For the compound `CCOC(=O)/C=C(C)/C=C/C=C(C)/C=C/c1c(C)cc(OC)c(C)c1C` [ETRETINATE], the pEC50 in [1] is below 4.60. On the same count and under the same terms, next, `C=C[C@@]1(C)CC(=O)[C@@]23OS(=O)O[C@H]4CCC(C)(C)[C@H]([C@H](O)[C@H](OC(C)=O)[C@@]2(C)O1)[C@]43C` (some centres not stated): 5.51. With `CC(C)=CCC[C@](C)(O[C@@H]1O[C@H](CO)[C@@H](O)[C@H](O)[C@H]1O)[C@H]1CC[C@]2(C)[C@@H]1[C@H](O)C[C@@H]1[C@@]3(C)CC[C@H](O)C(C)(C)[C@@H]3[C@@H](O[C@@H]3O[C@H](CO)[C@@H](O)[C@H](O)[C@H]3O[C@@H]3O[C@@H](C)[C@H](O)[C@@H](O)[C@H]3O)C[C@]12C`, in the data set with ASK, the result was inactive. Take `CC1=C(/C=C/C(C)=C/C=C/C(C)=C/C=O)C(C)(C)CCC1` [RETINAL]: in [1], the pEC50 was above 5.00. As to `C=C[C@@]1(C)CC(=O)[C@]2(O)[C@@]3(C)[C@@H](O)CCC(C)(C)[C@@H]3[C@H](O)[C@H](OC(C)=O)[C@@]2(C)O1` [COLFORSIN], the Activity was 100% in data set [20]; 100% in [21]; 15% in data set [22]; 50% in data set [23]; 0% in [24]. For the same compound, the pEC50 in data set [1] is 7.15. For `COC(C)C1=C(/C=C/C(C)=C/C=C/C(C)=C/C(=O)O)C(C)(C)CC1` (configuration not stated), the pEC50 in data set [1] was above 5.00. For `C=C[C@@]1(C)CC(O)[C@]2(O)[C@@]3(C)[C@@H](O)CCC(C)(C)[C@@H]3[C@H](O)[C@H](OC(C)=O)[C@@]2(C)O1` (some centres not stated), the pEC50 in [1] was 5.19. On to `CC1(C)CC[C@]2(C(=O)O[C@@H]3O[C@H](CO)[C@@H](O)[C@H](O)[C@H]3O)CC[C@]3(C)C(=CC[C@@H]4[C@@]5(C)CC[C@H](O[C@@H]6O[C@H](C(=O)O)[C@@H](O)[C@H](O)[C@H]6O[C@@H]6O[C@H](CO)[C@@H](O)[C@H](O)[C@H]6O)C(C)(C)[C@@H]5CC[C@]43C)[C@@H]2C1`, for which the outcome in the data set on ASK was inactive. As for `CC(C)=CCC[C@](C)(O[C@@H]1O[C@H](CO[C@@H]2OC[C@@H](O)[C@H](O)[C@H]2O)[C@@H](O)[C@H](O)[C@H]1O)[C@H]1CC[C@]2(C)[C@@H]1[C@H](O)C[C@@H]1[C@@]3(C)CC[C@H](O[C@@H]4O[C@H](CO)[C@@H](O)[C@H](O)[C@H]4O[C@@H]4O[C@H](CO)[C@@H](O)[C@H](O)[C@H]4O)C(C)(C)[C@@H]3CC[C@]12C`, the result in the data set on ASK was inactive. Consider `CC(C)=CCC[C@](C)(O[C@@H]1O[C@H](CO)[C@@H](O)[C@H](O)[C@H]1O)[C@H]1CC[C@]2(C)[C@@H]1[C@H](O)C[C@@H]1[C@@]3(C)CC[C@H](O[C@@H]4O[C@H](CO)[C@@H](O)[C@H](O)[C@H]4O[C@@H]4O[C@H](CO)[C@@H](O)[C@H](O)[C@H]4O)C(C)(C)[C@@H]3CC[C@]12C`, for which the result in the data set with ASK was inactive. With `CC(/C=C/C12OC1(C)CCCC2(C)C)=C\C=C\C(C)=C\C(=O)O` (configuration not stated), the pEC50 in data set [1] is below 4.60.

On to `CC1=C(CC/C(C)=C/C=C/C(C)=C/C(=O)O)C(C)(C)CCC1`, for which, in data set [1], the pEC50 is above 5.00. Consider `CC(C)=CCC[C@](C)(O[C@@H]1O[C@H](CO[C@@H]2O[C@@H](CO)[C@H](O)[C@H]2O)[C@@H](O)[C@H](O)[C@H]1O)[C@H]1CC[C@]2(C)[C@@H]1[C@H](O)C[C@@H]1[C@@]3(C)CC[C@H](O[C@@H]4O[C@H](CO)[C@@H](O)[C@H](O)[C@H]4O[C@@H]4O[C@H](CO)[C@@H](O)[C@H](O)[C@H]4O)C(C)(C)[C@@H]3CC[C@]12C`, for which the outcome in the data set with ASK was inactive. Take `CC1=C(/C=C/C(C)=C/C=C/C(C)=C\C(=O)O)C(C)(C)CCC1` [ISOTRETINOIN]: the pEC50 in [1] is above 5.00.
